Active and inactive are the calls of the source. The calls are words filed in the database; no cut-off is given here.
Key:
LoVo = assay: Cytotoxicity against human LoVo assessed as reduction in cell viability measured after 72 hrs by MTT assay; type: functional, cell-based
A549 = assay: Cytotoxicity against human A549 assessed as reduction in cell viability measured after 72 hrs by MTT assay; type: functional, cell-based; details: A549, 72 h
HCT-116 [1] = assay: Cytotoxicity against human HCT-116 assessed as reduction in cell viability measured after 72 hrs by MTT assay; type: functional, cell-based; details: HCT-116, 72 h
COLO 205 = assay: Cytotoxicity against human COLO 205 assessed as reduction in cell viability measured after 72 hrs by MTT assay; type: functional, cell-based; details: COLO 205, 72 h
NCI-H1975 = assay: Cytotoxicity against human NCI-H1975 assessed as reduction in cell viability measured after 72 hrs by MTT assay; type: functional, cell-based; details: NCI-H1975, 72 h
HeLa = assay: Cytotoxicity against human Hela assessed as reduction in cell viability measured after 72 hrs by MTT assay; type: functional, cell-based
[2] = Toxicity in NPG mouse xenografted with human Raji cells assessed as body weight loss at 5 mg/kg, ip measured after 5 day; type: organism-based; details: in vivo, 120 h
Raji [3] = assay: Antitumor activity against NPG mouse xenografted with human Raji cell assessed as tumor growth inhibition at 5 mg/kg, ip measured after 5 day; type: functional; details: 120 h, read-out: TGI
[4] = Toxicity in nude BALB/c mouse xenografted with human HCT-116 cells assessed as reduction in body weight at 20 mg/kg, po dosed once the every 2 day for upto 24 days; type: organism-based; details: in vivo, time <=24 day
[5] = Toxicity in NPG mouse xenografted with human Raji cells assessed as body weight loss at 5 mg/kg, ip measured on the 1 day; type: organism-based; details: in vivo, 24 h
Raji [6] = assay: Cytotoxicity against human Raji assessed as reduction in cell viability measured after 72 hrs by MTT assay; type: functional, cell-based
HCT-116 [7] = assay: Induction of apoptosis in human HCT-116 cells assessed as early apoptotic cells level at 0.03 uM incubated for 24 hrs by Annexin V-FITC/PI staining based flow cytometry (reference value: 0.17%); type: functional
HCT-116 [8] = assay: Induction of apoptosis in human HCT-116 cells assessed as early apoptotic cells level at 0.001 uM incubated for 24 hrs by Annexin V-FITC/PI staining based flow cytometry (reference value: 0.17%); type: functional
[9] = Solubility of compound in phosphate buffer at pH 7.4 incubated for 24 hrs under shaking condition by HPLC analysis; type: physicochemical
HCT-116 [10] = assay: Induction of apoptosis in human HCT-116 cells assessed as early apoptotic cells level at 1 uM incubated for 24 hrs by Annexin V-FITC/PI staining based flow cytometry (reference value: 0.17%); type: functional
HCT-116 [11] = assay: Induction of apoptosis in human HCT-116 cells assessed as late apoptotic cells level at 0.001 uM incubated for 24 hrs by Annexin V-FITC/PI staining based flow cytometry (reference value: 0.07%); type: functional
[12] = Solubility of compound in water incubated for 24 hrs under shaking condition by HPLC analysis; type: physicochemical
HCT-116 [13] = assay: Induction of apoptosis in human HCT-116 cells assessed as late apoptotic cells level at 0.03 uM incubated for 24 hrs by Annexin V-FITC/PI staining based flow cytometry (reference value: 0.07%); type: functional
HCT-116 [14] = assay: Inhibition of colony formation in human HCT-116 cells at 1 nM incubated for 12 days by crystal violet dye based assay; type: functional, cell-based; details: time 12.0 day
[15] = Solubility of compound in phosphate buffer at pH 4.5 incubated for 24 hrs under shaking condition by HPLC analysis; type: physicochemical
HCT-116 [16] = assay: Induction of apoptosis in human HCT-116 cells assessed as late apoptotic cells level at 1 uM incubated for 24 hrs by Annexin V-FITC/PI staining based flow cytometry (reference value: 0.07%); type: functional

Compound	IC50 (LoVo)	IC50 (A549)	IC50 (HCT-116 [1])	IC50 (COLO 205)	IC50 (NCI-H1975)	IC50 (HeLa)	also measured
CC[C@@]1(O)C(=O)OCc2c1cc1n(c2=O)Cc2cc3cc(O)ccc3nc2-1 [HYDROXYCAMPTOTHECIN]	330 nM	80 nM	21 nM				
CC[C@@]1(O)C(=O)OCc2c1cc1n(c2=O)Cc2cc3cc(OCC(=O)N4CCN(C)CC4)ccc3nc2-1	> 10000 nM	> 10000 nM	> 10000 nM	> 10000 nM	> 10000 nM	2570 nM	
CC[C@@]1(O)C(=O)OCc2c1cc1n(c2=O)Cc2cc3cc(OCC(=O)NCCN(C)C)ccc3nc2-1	> 10000 nM	> 10000 nM	> 10000 nM	> 10000 nM	> 10000 nM	> 10000 nM	
CCN(CC)CCNC(=O)COc1ccc2nc3c(cc2c1)Cn1c-3cc2c(c1=O)COC(=O)[C@]2(O)CC	> 10000 nM	> 10000 nM	> 10000 nM	> 10000 nM	> 10000 nM	> 10000 nM	
CCc1c2c(nc3ccc(OC(=O)N4CCC(N5CCCCC5)CC4)cc13)-c1cc3c(c(=O)n1C2)COC(=O)[C@]3(O)CC.Cl							Activity [2]: 23.5 g; inhibition in vivo at 5 mg/kg (Raji [3]): 7.1%; Activity [4]: Toxic; Activity [5]: 24.2 g
CCc1c2c(nc3ccc(OCC(=O)N4CCCC4)cc13)-c1cc3c(c(=O)n1C2)COC(=O)[C@]3(O)CC	181 nM	37 nM	12 nM	250 nM	630 nM	350 nM	IC50 (Raji [6]): 6 nM
CCc1c2c(nc3ccc(O)cc13)-c1cc3c(c(=O)n1C2)COC(=O)[C@]3(O)CC [7-ETHYL-10-HYDROXYCAMPTOTHECIN]	301 nM	18 nM	10 nM	220 nM	810 nM	145 nM	Activity (HCT-116 [7]): 3.11%; Activity (HCT-116 [8]): 2.91%; solubility thermodynamic at 24 h [9]: < 0.25 µg/mL; Activity (HCT-116 [10]): 24.42%; Activity (HCT-116 [11]): 2.81%; solubility thermodynamic at 24 h [12]: < 0.25 µg/mL; Activity (HCT-116 [13]): 8.29%; inhibition (HCT-116 [14]): Active; solubility thermodynamic at 24 h [15]: < 0.25 µg/mL; Activity (HCT-116 [16]): 7.12%; IC50 (Raji [6]): 5 nM
CC[C@@]1(O)C(=O)OCc2c1cc1n(c2=O)Cc2cc3cc(OCC(=O)N(C)CCN(C)C)ccc3nc2-1	> 10000 nM	> 10000 nM	> 10000 nM	> 10000 nM	> 10000 nM	> 10000 nM	
CC[C@@]1(O)C(=O)OCc2c1cc1n(c2=O)Cc2cc3cc(OCC(=O)N4CCC(N(C)C)CC4)ccc3nc2-1	> 10000 nM	> 10000 nM	> 10000 nM	> 10000 nM	> 10000 nM	> 10000 nM	
CCN(CC)C(=O)COc1ccc2nc3c(cc2c1)Cn1c-3cc2c(c1=O)COC(=O)[C@]2(O)CC	933 nM	261 nM	101 nM	1520 nM	1960 nM	1010 nM	
CC[C@@]1(O)C(=O)OCc2c1cc1n(c2=O)Cc2cc3cc(OCC(=O)N4CCCCC4)ccc3nc2-1	272 nM	55 nM	17 nM	540 nM	1380 nM	380 nM	
CC[C@@]1(O)C(=O)OCc2c1cc1n(c2=O)Cc2cc3cc(OCC(=O)N4CCCC4)ccc3nc2-1	880 nM	80 nM	81 nM	2830 nM	2810 nM	1370 nM	
